# In patent US6228842A, “Pacidamycins produced by Streptomyces coeruleorubidus” (Microcide Pharmaceuticals, Inc., priority 1998, dated 2001):
# Legend:
# Test in all cases: In vitro antibacterial MIC, broth microdilution
# P. aeruginosa 799/61 = assay type: cell-based, Pseudomonas aeruginosa; settings: P. aeruginosa 799/61 (sensitive strain); Mueller Hinton broth, 20 h at 35° C.
# Description: (§1) The compounds of the invention were evaluated against various bacterial strains by determining the minimum inhibitory concentration (MIC) of each compound with respect to each strain. The MIC is defined as the lowest concentration of drug which prevents the growth of the bacteria. A variety of different Gram-negative and Gram-positive bacterial species and strains can be selected for assay purposes depending on the particular desired application. The susceptibility assay is performed in Mueller Hinton broth using a microdilution technique in a final test volume of 100 μl using 96-well microtiter plates. Test compounds are prepared in Mueller-Hinton broth at a concentration equivalent to 2-fold the desired final concentration. The bacterial inoculi are prepared as follow. Bacterial strains are grown overnight at 35° C. on Tryptic Soy agar (TSA). For each strain, one isolated colony is used to inoculate a volume of 8 ml of Mueller Hinton broth and these cultures are incubated overnight (20 h) at 35° C. in a shaking incubator. Culture are then diluted 1:10 and allow to grow for an additional one hour at 35° C. in a shaking incubator. The inoculum used for the susceptibility assay is prepared by diluting the early log-phase (1 h) culture 1:2000 with fresh Mueller Hinton broth. A 50 μl volume of the inoculi, and a 50 μl solution of the test compound prepared as described above is added to each well. This procedure results in an inoculum of approximately 5×10^5 CFU/ml. After incubation for 20 h at 35° C., the absorbance of the cultures in each is read, e.g., using the ThermoMax microtiter plate reader (Molecular Devices) at 650 nm. The MIC is defined as the lowest concentration of compounds which prevents growth of the microorganism and therefore results in a final absorbance equal to that of the drug-free (e.g., test compound free) control.
# P. aeruginosa ATCC 27853 = assay type: cell-based, Pseudomonas aeruginosa; settings: Mueller Hinton broth, 20 h at 35° C.
# Description: as §1
# P. aeruginosa UPA res. = assay type: cell-based, Pseudomonas aeruginosa; settings: Mueller Hinton broth, 20 h at 35° C.
# Description: as §1
# E. coli ATCC 25922 = assay type: cell-based; settings: Mueller Hinton broth, 20 h at 35° C.
# Description: as §1
# E. faecalis ATCC 29212 = assay type: cell-based; settings: Mueller Hinton broth, 20 h at 35° C.
# Description: as §1
# S. aureus ATCC 29213 = assay type: cell-based; settings: Mueller Hinton broth, 20 h at 35° C.
# Description: as §1
# [1] = system: S. epidermidis ATCC 31432; assay type: cell-based; settings: Mueller Hinton broth, 20 h at 35° C.
# Description: as §1
# [2] = system: X. maltophilia ATCC 13637; assay type: cell-based; settings: Mueller Hinton broth, 20 h at 35° C.
# Description: as §1
molecule,measurement,setting,value
"C[C@H](N)C(=O)N[C@@H](Cc1cccc(O)c1)C(=O)N(C)[C@@H](C)[C@H](NC(=O)[C@H](C)NC(=O)N[C@@H](Cc1c[nH]c2ccccc12)C(=O)O)C(=O)N/C=C1/C[C@@H](O)[C@H](n2ccc(=O)[nH]c2=O)O1 [Pacidamycin-1, pacidamycin-1, reference compound]","Minimal Inhibitory Concentration, MIC",P. aeruginosa 799/61,1 µg/mL
same,"Minimal Inhibitory Concentration, MIC",P. aeruginosa ATCC 27853,4 µg/mL
same,"Minimal Inhibitory Concentration, MIC",P. aeruginosa UPA res.,> 250 µg/mL
same,"Minimal Inhibitory Concentration, MIC",E. coli ATCC 25922,> 250 µg/mL
same,"Minimal Inhibitory Concentration, MIC",E. faecalis ATCC 29212,64 µg/mL
same,"Minimal Inhibitory Concentration, MIC",S. aureus ATCC 29213,> 250 µg/mL
same,"Minimal Inhibitory Concentration, MIC",[1],> 250 µg/mL
same,"Minimal Inhibitory Concentration, MIC",[2],> 250 µg/mL
"C[C@H](NC(=O)N[C@@H](Cc1c[nH]c2ccccc12)C(=O)O)C(=O)N[C@H](C(=O)N/C=C1/C[C@@H](O)[C@H](n2ccc(=O)[nH]c2=O)O1)[C@H](C)N(C)C(=O)[C@@H](N)Cc1cccc(O)c1 [Pacidamycin-4, pacidamycin-4, reference compound]","Minimal Inhibitory Concentration, MIC",P. aeruginosa 799/61,2 µg/mL
same,"Minimal Inhibitory Concentration, MIC",P. aeruginosa ATCC 27853,16 µg/mL
same,"Minimal Inhibitory Concentration, MIC",P. aeruginosa UPA res.,> 250 µg/mL
same,"Minimal Inhibitory Concentration, MIC",E. coli ATCC 25922,64 µg/mL
same,"Minimal Inhibitory Concentration, MIC",E. faecalis ATCC 29212,64 µg/mL
same,"Minimal Inhibitory Concentration, MIC",S. aureus ATCC 29213,> 250 µg/mL
same,"Minimal Inhibitory Concentration, MIC",[1],> 250 µg/mL
"C[C@H](N)C(=O)N(C)[C@@H](C)[C@H](NC(=O)[C@H](C)NC(=O)N[C@@H](Cc1c[nH]c2ccccc12)C(=O)O)C(=O)N/C=C1/C[C@@H](O)[C@H](n2ccc(=O)[nH]c2=O)O1 [Pacidamycin-D, pacidamycin-D]","Minimal Inhibitory Concentration, MIC",P. aeruginosa 799/61,4 µg/mL
same,"Minimal Inhibitory Concentration, MIC",P. aeruginosa ATCC 27853,16 µg/mL
same,"Minimal Inhibitory Concentration, MIC",P. aeruginosa UPA res.,> 256 µg/mL
pacidamycin-4N,"Minimal Inhibitory Concentration, MIC",P. aeruginosa 799/61,4 µg/mL
same,"Minimal Inhibitory Concentration, MIC",P. aeruginosa ATCC 27853,64 µg/mL
same,"Minimal Inhibitory Concentration, MIC",P. aeruginosa UPA res.,> 256 µg/mL
pacidamycin-5N,"Minimal Inhibitory Concentration, MIC",P. aeruginosa 799/61,64 µg/mL
same,"Minimal Inhibitory Concentration, MIC",P. aeruginosa ATCC 27853,> 500 µg/mL
same,"Minimal Inhibitory Concentration, MIC",P. aeruginosa UPA res.,> 500 µg/mL
same,"Minimal Inhibitory Concentration, MIC",E. coli ATCC 25922,> 500 µg/mL
same,"Minimal Inhibitory Concentration, MIC",E. faecalis ATCC 29212,> 500 µg/mL
same,"Minimal Inhibitory Concentration, MIC",S. aureus ATCC 29213,> 500 µg/mL
same,"Minimal Inhibitory Concentration, MIC",[1],> 500 µg/mL
same,"Minimal Inhibitory Concentration, MIC",[2],> 500 µg/mL
pacidamycin-5T,"Minimal Inhibitory Concentration, MIC",P. aeruginosa 799/61,125 µg/mL
same,"Minimal Inhibitory Concentration, MIC",P. aeruginosa ATCC 27853,> 500 µg/mL
same,"Minimal Inhibitory Concentration, MIC",P. aeruginosa UPA res.,> 500 µg/mL
same,"Minimal Inhibitory Concentration, MIC",E. coli ATCC 25922,> 500 µg/mL
same,"Minimal Inhibitory Concentration, MIC",E. faecalis ATCC 29212,> 500 µg/mL
same,"Minimal Inhibitory Concentration, MIC",S. aureus ATCC 29213,> 500 µg/mL
same,"Minimal Inhibitory Concentration, MIC",[1],> 500 µg/mL
same,"Minimal Inhibitory Concentration, MIC",[2],> 500 µg/mL
